Molecules are shown by their SMILES.

For the assay, the target named is T1, human recombinant GPR65 (Homo sapiens, UniProt Q8IYL9).
T1 construct: host or cells: 1321N1 human astrocytoma cells (1321N1-hrGPR65)
T1 sequence (Q8IYL9 whole entry): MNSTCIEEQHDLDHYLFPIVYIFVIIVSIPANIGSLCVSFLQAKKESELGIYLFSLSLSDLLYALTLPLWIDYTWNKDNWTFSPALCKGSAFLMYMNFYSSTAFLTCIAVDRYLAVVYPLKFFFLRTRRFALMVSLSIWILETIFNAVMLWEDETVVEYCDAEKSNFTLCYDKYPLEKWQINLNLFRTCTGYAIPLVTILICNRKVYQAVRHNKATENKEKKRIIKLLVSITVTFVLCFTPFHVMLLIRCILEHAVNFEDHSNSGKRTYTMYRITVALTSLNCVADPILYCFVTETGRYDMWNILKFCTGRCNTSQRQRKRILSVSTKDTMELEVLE
Kind of assay: Human GPR65 cAMP HTRF antagonist assay. The class given is cell-based. The conditions noted are these: 1321N1-hrGPR65 cells, assay pH 7.2, cAMP HTRF; read-out: hGPR65 IC50. The method, boiled down: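 1321N1 cells stably expressing human GPR65 were preincubated 30 min at room temperature with compound in KRH pH 7.6 containing 1 mM IBMX and 200 μM EDTA. They were then acid-stimulated to pH 7.2 for 30 min, with pH 7.9 as control. cAMP was read by HTRF (665/620 ratio), and IC50 came from normalised 4-parameter logistic fits.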
Consider `O=C(Nc1cc(Cl)c(COc2cccc(OC3CCCC3)n2)cc1F)N1[C@H]2CC[C@@H]1c1n[nH]c(=O)cc1C2` [Compound 59, (6S,9R)-N-(5-chloro-4-(((6-(cyclopentyloxy)pyridin-2-yl)oxy)methyl)-2-fluorophenyl)-3-oxo-3,5,6,7,8,9-hexahydro-2H-6,9-epiminocyclohepta[c]pyridazine-10-carboxamide], for which the IC50 was below 500 nM. As for `O=C(Nc1cc(Cl)c(-c2ccc(OCC34CNC(C3)C4)nc2)cc1F)N1[C@H]2CC[C@@H]1c1c[nH]c(=O)cc1C2` [Compound 60, (6S,9R)-N-(4-(6-((2-azabicyclo[2.1.1]hexan-4-yl)methoxy)pyridin-3-yl)-5-chloro-2-fluorophenyl)-3-oxo-3,5,6,7,8,9-hexahydro-2H-6,9-epiminocyclohepta[c]pyridine-10-carboxamide], the figure is 500 to 5000 nM. As for `CN1CC2(COc3ccc(-c4cc(F)c(NC(=O)N5[C@H]6CC[C@@H]5c5c[nH]c(=O)cc5C6)cc4Cl)cn3)CC1C2` [Compound 61, (6S,9R)-N-(5-Chloro-2-fluoro-4-(6-((2-methyl-2-azabicyclo[2.1.1]hexan-4-yl)methoxy)pyridin-3-yl)phenyl)-3-oxo-3,5,6,7,8,9-hexahydro-2H-6,9-epiminocyclohepta[c]pyridine-10-carboxamide], the figure is 500 to 5000 nM. As for `CN1CCC(Oc2ccc(-c3cc(F)c(NC(=O)N4[C@H]5CC[C@@H]4c4c[nH]c(=O)cc4C5)cc3Cl)cn2)C1` (stereo partly drawn) [Compound 62], the figure is 500 to 5000 nM; as for `O=C(Nc1cc(Cl)c(-c2ccc(OCC3CNC3)nc2)cc1F)N1[C@H]2CC[C@@H]1c1c[nH]c(=O)cc1C2` [Compound 63, (6S,9R)-N-(4-(6-(Azetidin-3-ylmethoxy)pyridin-3-yl)-5-chloro-2-fluorophenyl)-3-oxo-3,5,6,7,8,9-hexahydro-2H-6,9-epiminocyclohepta[c]pyridine-10-carboxamide], 500 to 5000 nM; as for `O=C(Nc1cc(Cl)c(NCc2cccc(OCC(F)(F)F)n2)cc1F)N1[C@H]2CC[C@@H]1c1n[nH]c(=O)cc1C2` [Compound 64, (6S,9R)-N-(5-chloro-2-fluoro-4-(((6-(2,2,2-trifluoroethoxy)pyridin-2-yl)methyl)amino)phenyl)-3-oxo-3,5,6,7,8,9-hexahydro-2H-6,9-epiminocyclohepta[c]pyridazine-10-carboxamide], below 500 nM. In the case of `O=C(Nc1cc(Cl)c(NCc2ccc(OCC(F)(F)F)cn2)cc1F)N1[C@H]2CC[C@@H]1c1n[nH]c(=O)cc1C2` [Compound 65, (6S,9R)-N-(5-chloro-2-fluoro-4-(((5-(2,2,2-trifluoroethoxy)pyridin-2-yl)methyl)amino)phenyl)-3-oxo-3,5,6,7,8,9-hexahydro-2H-6,9-epiminocyclohepta[c]pyridazine-10-carboxamide], the IC50 lay within 500 to 5000 nM. As for `O=C(Nc1cc(Cl)c(Cl)cc1F)N1[C@H]2CC[C@@H]1c1cc[n+]([O-])cc1C2` [Compound 66, (5R,8S)-10-((4,5-dichloro-2-fluorophenyl)carbamoyl)-6,7,8,9-tetrahydro-5H-5,8-epiminocyclohepta[c]pyridine 2-oxide], the figure is below 500 nM; as for `O=C(Nc1cc(Cl)c(C(F)(F)F)cc1F)N1[C@H]2CC[C@@H]1c1cc[n+]([O-])cc1C2` [Compound 67, (5R,8S)-10-((5-chloro-2-fluoro-4-(trifluoromethyl)phenyl)carbamoyl)-6,7,8,9-tetrahydro-5H-5,8-epiminocyclohepta[c]pyridine 2-oxide], below 500 nM. Consider `Cc1nc2cc(-c3cc(F)c(NC(=O)N4[C@H]5CC[C@@H]4c4c[nH]c(=O)cc4C5)cc3Cl)ccc2[nH]1` [Compound 68, (6S,9R)-N-(5-chloro-2-fluoro-4-(2-methyl-1H-benzo[d]imidazol-5-yl)phenyl)-3-oxo-3,5,6,7,8,9-hexahydro-2H-6,9-epiminocyclohepta[c]pyridine-10-carboxamide], for which the IC50 was in the range of 500 to 5000 nM. Take `O=C(Nc1cc(Cl)c(-c2ccc(OCC(F)(F)F)nc2)cc1F)N1[C@@H]2CC[C@H]1C(F)(F)c1c2ccnc1F` [Compound 71, (5R,8S)-N-(5-Chloro-2-fluoro-4-(6-(2,2,2-trifluoroethoxy)pyridin-3-yl)phenyl)-1,9,9-trifluoro-6,7,8,9-tetrahydro-5H-5,8-epiminocyclohepta[c]pyridine-10-carboxamide]: the IC50 is below 500 nM. As for `O=C(Nc1cc(Cl)c(-c2ccc(OCC(F)(F)F)nc2)cc1F)N1[C@H]2CC[C@@H]1C(F)(F)c1c2ccnc1F` [Compound 72, (5S,8R)-N-(5-Chloro-2-fluoro-4-(6-(2,2,2-trifluoroethoxy)pyridin-3-yl)phenyl)-1,9,9-trifluoro-6,7,8,9-tetrahydro-5H-5,8-epiminocyclohepta[c]pyridine-10-carboxamide], the figure is below 500 nM; as for `O=C(Nc1cc(Cl)c(-c2ccc3nonc3c2)cn1)N1[C@H]2CC[C@@H]1C(F)(F)c1c2ccnc1F` [Compound 73, (5S,8R)-N-(5-(Benzo[c][1,2,5]oxadiazol-5-yl)-4-chloropyridin-2-yl)-1,9,9-trifluoro-6,7,8,9-tetrahydro-5H-5,8-epiminocyclohepta[c]pyridine-10-carboxamide], 500 to 5000 nM; as for `O=C(Nc1cc(Cl)c(-c2ccc3nonc3c2)cn1)N1[C@@H]2CC[C@H]1C(F)(F)c1c2ccnc1F` [Compound 74, (5R,8S)-N-(5-(Benzo[c][1,2,5]oxadiazol-5-yl)-4-chloropyridin-2-yl)-1,9,9-trifluoro-6,7,8,9-tetrahydro-5H-5,8-epiminocyclohepta[c]pyridine-10-carboxamide], below 500 nM.

Consider `O=C(Nc1cc(Cl)c(-c2ccc3nonc3c2)cn1)N1[C@@H]2CC[C@H]1c1ccnc(F)c1[C@H]2F` [Compound 75, (5S,8R,9R)-N-(5-(Benzo[c][1,2,5]oxadiazol-5-yl)-4-chloropyridin-2-yl)-1,9-difluoro-6,7,8,9-tetrahydro-5H-5,8-epiminocyclohepta[c]pyridine-10-carboxamide], for which the IC50 was below 500 nM. As for `O=C(Nc1cc(Cl)c(-c2ccc3nonc3c2)cn1)N1[C@@H]2CC[C@H]1[C@@H](F)c1c2ccnc1F` [Compound 76, (5R,8S,9S)-N-(5-(Benzo[c][1,2,5]oxadiazol-5-yl)-4-chloropyridin-2-yl)-1,9-difluoro-6,7,8,9-tetrahydro-5H-5,8-epiminocyclohepta[c]pyridine-10-carboxamide], the figure is below 500 nM; as for `O=C(Nc1cc(Cl)c(-c2ccc(OC[C@@H]3CCOC3)nc2)cc1F)N1[C@H]2CC[C@@H]1c1n[nH]c(=O)cc1C2` [Compound 79, (6S,9R)-N-(5-Chloro-2-fluoro-4-(6-(((R)-tetrahydrofuran-3-yl)methoxy)pyridin-3-yl)phenyl)-3-oxo-3,5,6,7,8,9-hexahydro-2H-6,9-epiminocyclohepta[c]pyridazine-10-carboxamide], below 500 nM; as for `O=C(Nc1cc(Cl)c(-c2ccc(OC[C@H]3CCOC3)nc2)cc1F)N1[C@H]2CC[C@@H]1c1n[nH]c(=O)cc1C2` [Compound 80, (6S,9R)-N-(5-Chloro-2-fluoro-4-(6-(((S)-tetrahydrofuran-3-yl)methoxy)pyridin-3-yl)phenyl)-3-oxo-3,5,6,7,8,9-hexahydro-2H-6,9-epiminocyclohepta[c]pyridazine-10-carboxamide], below 500 nM.

The values above are taken from patent US20260285863A1, “COMPOUNDS CAPABLE OF MODULATING GPR65” (Pathios Therapeutics Limited, priority 2023, published 2026).
